The results in this text go back to patent publication US9624228B2, “Inhibitors of ERK and methods of use” (KURA ONCOLOGY, INC., priority 2013, dated 2017).

Usually IC50 stands for the concentration needed to halve the response being measured.

Structures are written as SMILES.

Chain of ERK2 enzyme (P28482 whole entry): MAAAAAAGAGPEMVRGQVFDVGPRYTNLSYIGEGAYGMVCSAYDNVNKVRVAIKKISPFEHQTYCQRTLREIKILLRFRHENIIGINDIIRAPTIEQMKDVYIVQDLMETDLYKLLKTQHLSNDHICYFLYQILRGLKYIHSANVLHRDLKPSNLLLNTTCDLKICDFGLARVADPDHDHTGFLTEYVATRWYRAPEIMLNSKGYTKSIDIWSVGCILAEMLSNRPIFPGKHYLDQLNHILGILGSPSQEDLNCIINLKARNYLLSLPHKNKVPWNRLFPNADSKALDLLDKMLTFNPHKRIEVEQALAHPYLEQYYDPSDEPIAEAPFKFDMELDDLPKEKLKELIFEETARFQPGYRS

For the first assay, the target named is ERK2 enzyme (Homo sapiens (Human), UniProt P28482). Nature of the assay: Inhibition assay of ERK (Z'-LYTE kinase assay, Ser/Thr 3 peptide substrate). The note with it: In vitro ERK2 enzyme, 100 μM ATP. It counts as biochemical. How it is done:
The inhibition of ERK activity by the compounds disclosed herein was determined using the Z′-LYTE kinase assay kit (Life Technologies) with a Ser/Thr 3 peptide substrate (Life Technologies) according to manufacturers' instructions. […] The IC50 values for the compounds were determined with 3-fold serial dilutions in duplicate. […] The final DMSO concentration in the assay was 1%. Final reaction volume was 20 μL/well in 384-well plates. Kinase reactions were conducted or 1 hour followed by the assay development reaction (1 hour) in a 20 ul/well in a 384 well plate format.
For `Cc1cc(-c2n[nH]c3cc4c(cc23)CN([C@@H]2CCCN(CC3CCC3)C2)C(=O)N4)ccn1` [Compound 137], the IC50 lay within 50 to 250 nM.
`O=C1Nc2cc3[nH]nc(-c4ccncc4)c3cc2CN1Cc1cccc(Cl)c1` [Compound 3]: the IC50 was less than 50 nM.
Regarding `Cc1cc(-c2n[nH]c3cc4c(cc23)CN(CCO)C(=O)N4)ccn1` [Compound 43], the IC50 is less than 50 nM.
On to `Cc1cc(-c2n[nH]c3cc4c(cc23)CN(Cc2cccc(Cl)c2)C(=O)N4)ccn1` [Compound 4], for which the IC50 was less than 50 nM.
`COc1ncc(-c2n[nH]c3cc4c(cc23)CN([C@H](CO)c2cccc(Cl)c2)C(=O)N4)cn1` [Compound 118] registered an IC50 of less than 50 nM.
The same measure, in the same setting: the value for `Cc1cc(-c2n[nH]c3cc4c(cc23)CN(C2CN(CCC3CC3)C2)C(=O)N4)ccn1` [Compound 189] was 50 to 250 nM.
The same measure, in the same setting: the value for `COc1ccc(-c2n[nH]c3cc4c(cc23)CN([C@H](C)c2cccc(Cl)c2)C(=O)N4)cn1` [Compound 74] was 50 to 250 nM; that for `O=C1Nc2cc3[nH]nc(Br)c3cc2CN1Cc1cccc(Cl)c1` [Compound 25] was 250 to 1000 nM.
`Cc1cc(-c2n[nH]c3cc4c(cc23)CN([C@@H]2CCCN(C(=O)c3ccccc3)C2)C(=O)N4)ccn1` [Compound 172] gave an IC50 of less than 50 nM.
In the case of `Cc1cc(-c2n[nH]c3cc4c(cc23)CN([C@@H]2CCCN(Cc3ccc(Cl)cc3)C2)C(=O)N4)ccn1` [Compound 159], the IC50 was less than 50 nM.
`Cc1cc(-c2n[nH]c3cc4c(cc23)CN([C@@H]2CCCN(CC3CCCCC3)C2)C(=O)N4)ccn1` [Compound 141] registered an IC50 of 50 to 250 nM.
On the same count and under the same terms, the value for `Cc1cc(-c2n[nH]c3cc4[nH]c(=O)c(C(C)Cc5ccc(F)cc5)cc4cc23)ccn1` (centres unmarked) [Compound 73] was more than 1000 nM; that for `Cc1cc(-c2n[nH]c3cc4c(cc23)CN([C@@H]2CCCN(Cc3cccc(Cl)c3)C2)C(=O)N4)ccn1` [Compound 156] was less than 50 nM; that for `COc1cccc(F)c1CN1CC[C@@H](N2Cc3cc4c(-c5ccnc(C)c5)n[nH]c4cc3NC2=O)C1` [Compound 162] was less than 50 nM.
Same read-out and setting: the value for `Cc1cc(-c2n[nH]c3cc4c(cc23)CN([C@@H]2CCCN(Cc3ccc(F)c(F)c3)C2)C(=O)N4)ccn1` [Compound 190] was less than 50 nM; that for `Cc1cc(-c2n[nH]c3cc4[nH]c(=O)n(CCc5ccccc5)c4cc23)ccn1` [Compound 20] was 50 to 250 nM.
The molecule `Cc1cc(-c2n[nH]c3cc4c(cc23)CN(Cc2ccc(CC#N)cc2)C(=O)N4)ccn1` [Compound 65] displayed an IC50 of less than 50 nM.
`COc1ccc(-c2n[nH]c3cc4c(cc23)CN(Cc2ccc(F)c(Cl)c2)C(=O)N4)cn1` [Compound 36] showed an IC50 of less than 50 nM.
Molecule `Cc1cc(-c2n[nH]c3cc4c(cc23)CN([C@@H]2CCCN(Cc3cccnc3C)C2)C(=O)N4)ccn1` [Compound 170] yielded an IC50 of less than 50 nM.
Take `Cc1ccc(CN2CCC[C@@H](N3Cc4cc5c(-c6ccnc(C)c6)n[nH]c5cc4NC3=O)C2)cn1` [Compound 131]: the IC50 lay within 50 to 250 nM.
`Cc1cc(-c2n[nH]c3cc4c(cc23)CN(Cc2cscn2)C(=O)N4)ccn1` [Compound 47]: the IC50 was less than 50 nM.
Turning to `O=C1Nc2cc3[nH]nc(-c4ccccn4)c3cc2CN1Cc1cccc(Cl)c1` [Compound 91], the half-maximal inhibitory concentration (IC50) lay in the range of 50 to 250 nM.
Turning to `COc1ncc(-c2n[nH]c3cc4c(cc23)CN([C@H](C)c2ccc(Cl)cc2)C(=O)N4)cn1` [Compound 95], the IC50 was less than 50 nM.
`COc1ncc(-c2n[nH]c3cc4c(cc23)CN(C)CC(=O)N4)cn1` [Compound 109] yielded an IC50 of more than 1000 nM.
Molecule `Cc1cc(-c2n[nH]c3cc4c(cc23)CN([C@@H]2CCCN(CCC3CC3)C2)C(=O)N4)ccn1` [Compound 155] came in with an IC50 of less than 50 nM.
In turn, `O=C1Nc2cc3[nH]nc(-c4cccnc4)c3cc2CN1Cc1cccc(Cl)c1` [Compound 57] showed a concentration for half-maximal inhibition (IC50) of less than 50 nM.

The same assay, now with this note: In vitro, ERK2 enzyme 0.47 ng/μL, 100 μM ATP.
In the case of `Cc1cc(-c2n[nH]c3cc4c(cc23)CN([C@@H]2CN(CC(F)(F)F)C[C@H]2c2ccccc2F)C(=O)N4)ccn1` (racemic) [Compound 311], the IC50 is 50 to 250 nM.
Molecule `Cc1cc(-c2n[nH]c3cc4c(cc23)CN([C@@H]2CNC[C@H]2c2ccccc2)C(=O)N4)ccn1` (racemic) [Compound 223] had an IC50 of less than 50 nM.
Regarding `Cc1cc(-c2n[nH]c3cc4[nH]c(=O)c(C(O)c5ccccc5)cc4cc23)ccn1` (centres unmarked) [Compound 221], the IC50 is less than 50 nM.
Turning to `Cc1cc(-c2n[nH]c3cc4c(cc23)CN(Cc2ccccc2Cl)C(=O)N4)ccn1` [Compound 217], the half-inhibitory concentration (IC50) was less than 50 nM.
On the same count and under the same terms, the same measure for `Cn1nccc1-c1n[nH]c2cc3c(cc12)CN([C@@H]1CN(CC(F)(F)F)C[C@H]1c1ccccc1)C(=O)N3` [Compound 350]: 250 to 1000 nM; for `Cc1cc(-c2n[nH]c3cc4c(cc23)CN([C@@H]2CN(CC(F)(F)F)C[C@H]2c2cccs2)C(=O)N4)ccn1` (mixture of isomers) [Compound 321]: less than 50 nM; for `Cc1cc(-c2n[nH]c3cc4c(cc23)CN([C@H]2CN(Cc3ccccc3)CC(F)(F)C2)C(=O)N4)ccn1` [Compound 264]: less than 50 nM.
`Cc1cc(-c2n[nH]c3cc4c(cc23)CN([C@@H]2CCN(CC3CCCC3)C2)C(=O)N4)ccn1` [Compound 206] gave a concentration for half-maximal inhibition (IC50) of 250 to 1000 nM.
Molecule `Cc1cc(-c2n[nH]c3cc4c(cc23)CN([C@@H]2CN(CC(F)(F)F)C[C@H]2c2ccc(F)cc2)C(=O)N4)ccn1` (racemic) [Compound 300] yielded an IC50 of less than 50 nM.
The molecule `Cc1cc(-c2n[nH]c3cc4c(cc23)CN(CC2CCCN(Cc3ccccc3)C2)C(=O)N4)ccn1` (centres unmarked) [Compound 208] showed an IC50 of 50 to 250 nM.
As for `Cc1cc(-c2n[nH]c3cc4c(cc23)CN([C@@H]2CCCN(Cc3ccc(F)s3)C2)C(=O)N4)ccn1` [Compound 290], the IC50 was less than 50 nM.
`Cc1cc(-c2n[nH]c3cc4c(cc23)CN(CC2CCC2)C(=O)N4)ccn1` [Compound 253] displayed an IC50 of less than 50 nM.
The molecule `COc1ncc(-c2n[nH]c3cc4c(cc23)CN([C@@H]2CCCN(Cc3ccc(F)cc3F)C2)C(=O)N4)cn1` [Compound 280] gave an IC50 of less than 50 nM.
On to `CC(c1ccccc1)c1cc2cc3c(N4CCN(C)CC4)n[nH]c3cc2[nH]c1=O` (centres unmarked) [Compound 358], for which the IC50 was 50 to 250 nM.
With `O=C1Nc2cc3[nH]nc(-c4cccnc4)c3cc2CN1[C@@H]1CN(CC(F)(F)F)C[C@H]1c1ccccc1` [Compound 341], the 50% inhibitory concentration (IC50) was less than 50 nM.
As to `Cc1cc(-c2n[nH]c3cc4c(cc23)CN([C@H]2CN(C(C)C)C[C@@H]2c2ccccc2)C(=O)N4)ccn1` [Compound 296], the IC50 is 50 to 250 nM.
`Cc1cc(-c2n[nH]c3cc4c(cc23)CN([C@@H]2CCCN(Cc3cccs3)C2)C(=O)N4)ccn1` [Compound 254] had an IC50 of less than 50 nM.
Regarding `Cc1cc(-c2n[nH]c3cc4c(cc23)CN([C@@H]2CN(CC#N)C[C@H]2c2ccccc2)C(=O)N4)ccn1` (mixture of isomers) [Compound 366], the IC50 is less than 50 nM.
`Cc1ccc(-c2n[nH]c3cc4c(cc23)CN([C@@H]2CCCN(Cc3ccc(F)cc3F)C2)C(=O)N4)cn1` [Compound 284]: the IC50 was less than 50 nM.
In turn, `Cc1cc(-c2n[nH]c3cc4[nH]c(=O)c(C(C)c5ccc(F)cc5F)cc4cc23)ccn1` (centres unmarked) [Compound 312] had an IC50 of 50 to 250 nM.
`Cc1cc(-c2n[nH]c3cc4c(cc23)CN(CC2CCCCC2)C(=O)N4)ccn1` [Compound 213]: the IC50 is less than 50 nM.
In turn, `Cc1cc(-c2n[nH]c3cc4c(cc23)CN([C@@H]2CN(CC(F)(F)F)C[C@H]2C(C)C)C(=O)N4)ccn1` (mixture of isomers) [Compound 322] showed an IC50 of 50 to 250 nM.
For the molecule `Cc1cc(-c2n[nH]c3cc4c(cc23)CN([C@@H]2CN(CC(F)(F)F)C[C@H]2c2ccccc2)C(=O)N4)cc(C)n1` [Compound 339], the IC50 is less than 50 nM.
`Cc1cc(-c2n[nH]c3cc4c(cc23)CN(Cc2ccc(F)c(Cl)c2)C(=O)N4)cc(C)n1` [Compound 226] displayed an IC50 of less than 50 nM.
Same read-out and setting: the value for `Cc1cc(-c2n[nH]c3cc4c(cc23)CN([C@@H]2CN(CC(F)(F)F)C[C@H]2c2ccccc2)C(=O)N4)ccn1` [Compound 304] was less than 50 nM; that for `Cn1cc(-c2n[nH]c3cc4c(cc23)CN([C@@H]2CCCN(Cc3ccccc3)C2)C(=O)N4)cn1` [Compound 285] was less than 50 nM.
Regarding `Cc1cc(-c2n[nH]c3cc4c(cc23)CN([C@@H]2CN(CCC#N)C[C@H]2c2ccccc2)C(=O)N4)ccn1` (mixture of isomers) [Compound 356], the IC50 is less than 50 nM.
On to `CC(c1ccccc1)c1cc2cc3c(-c4cccnc4)n[nH]c3cc2[nH]c1=O` (centres unmarked) [Compound 330], for which the IC50 was less than 50 nM.
`Cc1cc(-c2n[nH]c3cc4c(cc23)CN([C@@H]2CCC[C@@H](NCc3ccccc3)C2)C(=O)N4)ccn1` [Compound 313] had an IC50 of less than 50 nM.
In turn, `Cc1cc(-c2n[nH]c3cc4c(cc23)CN(Cc2cc(F)cc(F)c2)C(=O)N4)cc(C)n1` [Compound 225] gave an IC50 of less than 50 nM.
The molecule `COc1ccc(-c2n[nH]c3cc4c(cc23)CN([C@@H]2CCN(CC(F)(F)F)C2)C(=O)N4)cn1` [Compound 277] came in with an IC50 of less than 50 nM.
Turning to `COc1ccc(-c2n[nH]c3cc4c(cc23)CN([C@H]2CCCN(Cc3ccc(F)cc3F)C2)C(=O)N4)cn1` [Compound 369], the IC50 fell in the range of 250 to 1000 nM.
In the case of `Cc1cc(-c2n[nH]c3cc4c(cc23)CN(C2CCCCC2)C(=O)N4)ccn1` [Compound 204], the half-inhibitory concentration (IC50) was less than 50 nM.
Same read-out and setting: the same measure for `COc1cc(-c2n[nH]c3cc4c(cc23)CN([C@@H]2CCCN(Cc3ccc(F)cc3F)C2)C(=O)N4)ccn1` [Compound 271]: less than 50 nM; for `Cc1cc(-c2n[nH]c3cc4c(cc23)CN(C2CN(Cc3ccccc3)CC(F)(F)C2)C(=O)N4)ccn1` (centres unmarked) [Compound 200]: less than 50 nM; for `Cc1cc(-c2n[nH]c3cc4c(cc23)CN([C@@H]2CCCN(Cc3sccc3F)C2)C(=O)N4)ccn1` [Compound 291]: less than 50 nM.
